From US12569502B2, “Use of bile acids and derivatives thereof in preparation of GPR39 agonist” (PEKING UNIVERSITY, priority 2019, dated 2026)
Where two headings read alike, the source gives them in different places.

Legend:
[1] = target: T1, Neurotensin receptor 1 (NTSR1, NP_002522.2) (Homo sapiens, UniProt P30989); assay: Confocal calcium imaging of Ghrelin receptor family, overexpressed in HEK293T cells; type: cell-based; conditions: 200 μM
T1 construct: mCherry; host or cells: HEK293T, transient
T1 sequence (P30989 whole entry): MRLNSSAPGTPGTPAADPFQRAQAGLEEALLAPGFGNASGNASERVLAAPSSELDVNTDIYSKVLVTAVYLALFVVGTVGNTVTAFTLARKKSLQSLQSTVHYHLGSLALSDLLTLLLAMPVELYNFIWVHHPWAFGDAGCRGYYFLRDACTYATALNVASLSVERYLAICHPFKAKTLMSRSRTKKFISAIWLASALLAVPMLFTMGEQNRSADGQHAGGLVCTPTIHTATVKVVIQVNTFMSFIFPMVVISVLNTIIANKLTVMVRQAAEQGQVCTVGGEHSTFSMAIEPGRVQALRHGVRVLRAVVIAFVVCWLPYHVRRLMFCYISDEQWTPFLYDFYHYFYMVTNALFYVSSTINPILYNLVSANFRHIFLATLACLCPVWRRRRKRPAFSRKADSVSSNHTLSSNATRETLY
Experimental: (§1) According to the transient transfection method of Example 5.2, the 6 receptors of Ghrelin family except GPR39 were overexpressed in HEK293T cells respectively (the expression vectors for these 6 receptors came from the research group of Rao Yi, Peking University), and calcium dye was incubated. An inverted laser confocal microscope (leica Co.) was used to detect the activation of the 6 receptors of Ghrelin family by LCAS. The specific operations were as below: placing the cells to be detected on the microscope stage, detecting the fluorescence signal value of the calcium dye Fluo8 with the 488 nm channel, and detecting the fluorescence signal value of mCherry with the 543 nm channel. All receptors fused to express the red fluorescence protein mCherry, and the expression of receptors was determined by detecting the red fluorescence emitted from mCherry.

[2] = target: T2, Neuromedin-U receptor 2 (NMUR2, NP_064552.3) (Homo sapiens, UniProt Q9GZQ4); assay: as above; type: cell-based; conditions: 200 μM
T2 construct: mCherry; host or cells: HEK293T, transient
T2 sequence (Q9GZQ4 whole entry): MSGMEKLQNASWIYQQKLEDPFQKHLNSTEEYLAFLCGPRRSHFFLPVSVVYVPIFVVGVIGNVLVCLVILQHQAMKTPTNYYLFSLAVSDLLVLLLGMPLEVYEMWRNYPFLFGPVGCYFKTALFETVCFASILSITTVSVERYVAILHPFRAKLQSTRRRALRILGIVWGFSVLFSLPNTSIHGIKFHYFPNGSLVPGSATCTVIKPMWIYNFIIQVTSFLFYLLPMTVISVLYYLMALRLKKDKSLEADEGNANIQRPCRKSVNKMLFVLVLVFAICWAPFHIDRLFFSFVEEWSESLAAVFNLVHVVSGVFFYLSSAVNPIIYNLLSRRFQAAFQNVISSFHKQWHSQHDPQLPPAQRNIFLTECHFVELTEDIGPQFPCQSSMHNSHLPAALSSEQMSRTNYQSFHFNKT
Experimental: as §1

[3] = target: T3, Ghrelin receptor (GHSR, NP_940799.1) (Homo sapiens, UniProt Q92847); assay: as above; type: cell-based; conditions: 200 μM
T3 construct: mCherry; host or cells: HEK293T, transient
T3 sequence (Q92847 whole entry): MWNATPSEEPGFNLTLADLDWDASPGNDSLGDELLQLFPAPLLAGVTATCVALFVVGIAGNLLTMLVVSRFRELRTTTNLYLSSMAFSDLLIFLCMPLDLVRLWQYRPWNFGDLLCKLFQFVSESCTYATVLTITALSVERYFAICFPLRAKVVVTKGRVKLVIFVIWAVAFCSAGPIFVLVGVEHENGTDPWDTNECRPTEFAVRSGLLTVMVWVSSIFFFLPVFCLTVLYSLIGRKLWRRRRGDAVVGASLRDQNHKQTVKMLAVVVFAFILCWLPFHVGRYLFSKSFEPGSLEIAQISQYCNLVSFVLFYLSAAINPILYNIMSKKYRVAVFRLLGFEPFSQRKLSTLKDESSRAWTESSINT
Experimental: as §1

[4] = target: T4, Motilin receptor (MLNR, NP_001498.1) (Homo sapiens, UniProt O43193); assay: as above; type: cell-based; conditions: 200 μM
T4 construct: mCherry; host or cells: HEK293T, transient
T4 sequence (O43193 whole entry): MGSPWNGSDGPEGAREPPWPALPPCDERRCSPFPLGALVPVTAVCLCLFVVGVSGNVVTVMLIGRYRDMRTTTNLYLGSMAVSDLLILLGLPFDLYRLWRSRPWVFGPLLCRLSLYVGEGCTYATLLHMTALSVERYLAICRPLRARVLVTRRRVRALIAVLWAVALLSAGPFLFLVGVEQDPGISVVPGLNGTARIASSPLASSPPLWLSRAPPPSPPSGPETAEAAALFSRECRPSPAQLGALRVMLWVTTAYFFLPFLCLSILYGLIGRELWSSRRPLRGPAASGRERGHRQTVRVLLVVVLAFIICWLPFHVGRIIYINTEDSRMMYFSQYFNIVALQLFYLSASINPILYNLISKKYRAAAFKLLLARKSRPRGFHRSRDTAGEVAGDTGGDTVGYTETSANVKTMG
Experimental: as §1

[5] = target: T5, Neurotensin receptor 2 (NTSR2, NP_036476.2) (Homo sapiens, UniProt O95665); assay: as above; type: cell-based; conditions: 200 μM
T5 construct: mCherry; host or cells: HEK293T, transient
T5 sequence (O95665 whole entry): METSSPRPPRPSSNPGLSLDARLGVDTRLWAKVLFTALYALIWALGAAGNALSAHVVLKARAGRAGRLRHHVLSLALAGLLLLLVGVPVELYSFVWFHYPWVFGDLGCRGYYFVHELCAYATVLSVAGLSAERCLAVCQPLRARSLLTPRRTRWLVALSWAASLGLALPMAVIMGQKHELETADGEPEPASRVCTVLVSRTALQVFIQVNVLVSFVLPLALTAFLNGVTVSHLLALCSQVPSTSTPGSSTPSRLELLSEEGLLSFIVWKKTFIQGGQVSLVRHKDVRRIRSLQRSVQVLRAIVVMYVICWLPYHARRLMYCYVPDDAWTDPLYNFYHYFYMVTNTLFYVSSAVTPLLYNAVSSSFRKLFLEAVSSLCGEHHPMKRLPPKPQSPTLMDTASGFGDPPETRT
Experimental: as §1

[6] = target: T6, Neuromedin-U receptor 1 (NMUR1, NP_006047.3) (Homo sapiens, UniProt Q9HB89); assay: as above; type: cell-based; conditions: 200 μM
T6 construct: mCherry; host or cells: HEK293T, transient
T6 sequence (Q9HB89 1-426): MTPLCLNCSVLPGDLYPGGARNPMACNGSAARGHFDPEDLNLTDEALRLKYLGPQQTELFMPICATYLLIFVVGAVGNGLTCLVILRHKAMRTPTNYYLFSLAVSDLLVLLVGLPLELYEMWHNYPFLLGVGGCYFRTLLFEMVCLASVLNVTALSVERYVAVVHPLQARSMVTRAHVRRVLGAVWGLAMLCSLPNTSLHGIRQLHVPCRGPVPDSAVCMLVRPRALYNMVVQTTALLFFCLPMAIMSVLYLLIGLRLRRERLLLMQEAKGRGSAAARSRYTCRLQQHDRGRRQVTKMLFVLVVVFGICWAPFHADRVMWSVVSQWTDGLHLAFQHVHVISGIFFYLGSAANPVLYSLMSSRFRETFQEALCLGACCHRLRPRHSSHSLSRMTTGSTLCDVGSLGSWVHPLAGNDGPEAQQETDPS
Experimental: as §1

GPR39 [7] = assay: Confocal calcium imaging of Ghrelin receptor family; type: cell-based; conditions: 200 μM
[8] = target: T7, human GPR39 receptors on human GPR39-2 cell lines (Homo sapiens, UniProt O43194); assay: FLIPR calcium imaging on human GPR39-2 cell line stably expressing human GPR39; type: cell-based; conditions: for EC50: human GPR39-2 cells
T7 construct: P2A-mCherry (C)
T7 sequence (O43194 1-453): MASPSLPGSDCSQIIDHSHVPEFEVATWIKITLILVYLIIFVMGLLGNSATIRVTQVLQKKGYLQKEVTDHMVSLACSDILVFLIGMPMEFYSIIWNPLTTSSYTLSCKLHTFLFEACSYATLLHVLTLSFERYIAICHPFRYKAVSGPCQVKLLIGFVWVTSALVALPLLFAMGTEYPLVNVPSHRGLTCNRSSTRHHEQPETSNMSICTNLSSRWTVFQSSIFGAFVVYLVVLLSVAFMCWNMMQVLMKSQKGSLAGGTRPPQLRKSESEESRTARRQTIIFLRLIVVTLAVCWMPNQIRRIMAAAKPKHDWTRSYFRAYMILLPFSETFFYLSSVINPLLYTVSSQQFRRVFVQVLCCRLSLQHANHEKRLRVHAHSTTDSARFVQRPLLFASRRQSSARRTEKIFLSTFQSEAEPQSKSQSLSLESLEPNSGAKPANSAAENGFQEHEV
Description: The human GPR39 cDNA vector was purchased from WZ Biosciences Inc., Shandong. It was cloned onto a lentiviral vector PLVXK-hGPR39-P2A-mCherry (FIG. 10) through PCR amplification using primers hGPR39-F (which sequence was shown as set forth in SEQshown as set forth in SEQ ID NO: 15) and hGPR39-R (which sequence was shown as set forth in SEQ shown as set forth in SEQ ID NO: 16), in which the sequence of the target gene human GPR39 cDNA was shown as set forth in SEQ shown as set forth in SEQ ID NO: 14. A cell line human GPR39-2 stably expressing human GPR39 gene was constructed according to the method of Example 1.

GPR39 mutant D330A = target: T8, GPR39 mutant D330A (Mus musculus, UniProt Q5U431, D330A); assay: Calcium imaging of GPR39 activation site mutant, transiently transfected cells; type: cell-based; conditions: FIG. 7
T8 construct: 3HA (N); P2A-mCherry (C); expressed in transfected cells; host or cells: HEK293T, transient (Lipofectamine 3000)
T8 sequence (Q5U431 1-456 D330A): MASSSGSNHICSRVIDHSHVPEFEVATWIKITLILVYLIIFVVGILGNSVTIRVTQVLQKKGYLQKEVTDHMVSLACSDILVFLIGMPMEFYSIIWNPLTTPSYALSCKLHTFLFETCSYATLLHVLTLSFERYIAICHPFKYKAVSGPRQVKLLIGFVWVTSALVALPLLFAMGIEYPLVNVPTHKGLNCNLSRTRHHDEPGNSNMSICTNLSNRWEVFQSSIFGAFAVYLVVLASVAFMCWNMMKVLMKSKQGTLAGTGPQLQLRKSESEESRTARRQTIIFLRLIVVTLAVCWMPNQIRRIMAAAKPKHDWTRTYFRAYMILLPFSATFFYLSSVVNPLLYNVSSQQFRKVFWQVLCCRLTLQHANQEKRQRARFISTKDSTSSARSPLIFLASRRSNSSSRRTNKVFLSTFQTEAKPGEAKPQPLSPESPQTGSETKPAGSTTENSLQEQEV
Description: GPR39 mutants E90A, F115A, E116A and D330A were firstly constructed according to the method of Example 5.

GPR39 [9] = target: T9, GPR39 (Homo sapiens, UniProt O43194); conditions: cell line that transiently or stably expresses GPR39; read-out: cAMP elevation EC50; cited from earlier work
T9 sequence (O43194 1-453): T7 sequence (O43194 1-453)

GPR39 [10] = target: T9, GPR39; conditions: cell line that transiently or stably expresses GPR39; read-out: phosphoinositide accumulation EC50; cited from earlier work

SMILES | activation of NTSR1 (calcium imaging) [1] | activation of NMUR2 (calcium imaging) [2] | activation of GHSR (calcium imaging) [3] | activation of MLNR (calcium imaging) [4] | activation of NTSR2 (calcium imaging) [5] | activation of NMUR1 (calcium imaging) [6] | activation of GPR39 (calcium imaging) (GPR39 [7]) | EC50 ([8]; EC50 Agonist + 4 μM zinc ions, 4 μM zinc ions) [µM] | intracellular calcium signal response of human GPR39-2 ([8]; FIG. 9) | activation of mutant D330A (calcium imaging) (GPR39 mutant D330A) | EC50 (GPR39 [9]) [µM] | EC50 (GPR39 [10]) [µM] | EC50 ([8]; no added zinc ions, read-out: EC50 Only agonist) [µM]
C[C@H](CCC(=O)O)[C@H]1CC[C@H]2[C@@H]3CC[C@@H]4C[C@H](OS(=O)(=O)O)CC[C@]4(C)[C@H]3CC[C@]12C [LCAS] | cannot be activated | cannot be activated | cannot be activated | cannot be activated | cannot be activated | cannot be activated | may be activated | 0.97 ± 0.3 | capable of inducing intracellular calcium signal response | activated | – | – | –
[Zn+2] [Zinc ions, reference compound] | – | – | – | – | – | – | – | – | – | – | 7.4 | 22 | 12 ± 2.8
